Measurements from article PMC7948796, “Mammalian-like type II glutaminyl cyclases in Porphyromonas gingivalis and other oral pathogenic bacteria as targets for treatment of periodontitis” (The Journal of Biological Chemistry, 2021).
≈ marks a conversion by molar mass, not a printed value. Entries after “also recorded” stand apart in the source; their conditions may differ.

Legend:
[1] = tested on: Fusobacterium nucleatum ATCC 25586; experiment: MIC, micro-broth dilution; type: cell-based
Experimental: (§1) The micro-broth dilution technique was used to determine MICs. After subcultivation of bacterial strains and checking of purity, a defined inoculum was added to Wilkins–Chalgren broth (Oxoid) supplemented with 10 μg/ml β-NAD (Sigma-Aldrich) containing the inhibitor. A twofold dilution series was made, starting from 2 mM (final concentration) of the inhibitor. The growth control contained 10% of the inhibitor dissolvent at 2 mM (0.01% DMSO in a buffer with 50 mM TRIS, pH 8, and 50 mM NaCl). After an incubation period of 42 h (18 h for the aerobic S. gordonii), the growth of microbes was analyzed by visual analysis of the turbidity. MIC represents the lowest concentration without visible turbidity. All experiments were made using independent replicates.

[2] = tested on: Tannerella forsythia ATCC 43037; experiment: MIC, micro-broth dilution; type: cell-based
Experimental: as §1

[3] = tested on: Prevotella intermedia ATCC 25611; experiment: MIC, micro-broth dilution; type: cell-based
Experimental: as §1

[4] = tested on: Streptococcus gordonii ATCC 10558; experiment: MIC, micro-broth dilution; type: cell-based
Experimental: as §1

[5] = target: HsQC (Homo sapiens, UniProt Q16769); experiment: QC inhibition assay with fluorogenic substrate H-Gln-AMC (Ki); type: biochemical; settings: read-out: Ki value for HsQC
Sequence of HsQC (Q16769 29-361): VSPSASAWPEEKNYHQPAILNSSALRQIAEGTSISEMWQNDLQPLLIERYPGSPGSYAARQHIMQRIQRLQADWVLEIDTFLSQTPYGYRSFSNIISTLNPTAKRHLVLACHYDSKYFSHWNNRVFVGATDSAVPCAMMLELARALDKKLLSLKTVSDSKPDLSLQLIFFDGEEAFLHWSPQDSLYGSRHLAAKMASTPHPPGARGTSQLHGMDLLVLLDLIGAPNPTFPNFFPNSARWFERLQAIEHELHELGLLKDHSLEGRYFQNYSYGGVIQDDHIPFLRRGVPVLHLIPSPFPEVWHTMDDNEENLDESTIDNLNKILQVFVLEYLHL

[6] = tested on: P. gingivalis J374-1; experiment: Growth curves, OD at 600 nm; type: cell-based, Porphyromonas gingivalis; settings: clinical isolate J374-1, Fig. 6B
Experimental: (§2) In addition, we monitored the growth of two P. gingivalis strains ([…] and J374-1) by measuring the OD at 600 nm at different time points (it was not possible to make continuous measurements due to the anaerobic growth conditions of P. gingivalis), with the OD600 being recorded at 0 h, 16 h, 20 h, 24 h, and 42 h.

[7] = tested on: P. gingivalis ATCC 33277; experiment: Growth curves, OD at 600 nm; type: cell-based, Porphyromonas gingivalis; settings: laboratory strain ATCC 33277, Fig. 6A
Experimental: as §2

[8] = tested on: Porpyhromonas gingivalis J374–1 (clinical isolate); experiment: MIC, micro-broth dilution; type: cell-based, Porphyromonas gingivalis
Experimental: as §1

[9] = tested on: Porpyhromonas gingivalis ATCC 33277; experiment: MIC, micro-broth dilution; type: cell-based, Porphyromonas gingivalis
Experimental: as §1

[10] = tested on: Porpyhromonas gingivalis M5-1-2 (clinical isolate); experiment: MIC, micro-broth dilution; type: cell-based, Porphyromonas gingivalis
Experimental: as §1

[11] = target: PgQC (Porphyromonas gingivalis, UniProt Q7MT37); experiment: QC inhibition assay with fluorogenic substrate H-Gln-AMC (Ki); type: biochemical; parameters: His-tag (pET28a, thrombin-cleavable) (N, cleaved yes); made in house; host or cells: E. coli Rosetta(DE3)pLysS; settings: Ki value for PgQC
Sequence of PgQC (Q7MT37 entry or part of it): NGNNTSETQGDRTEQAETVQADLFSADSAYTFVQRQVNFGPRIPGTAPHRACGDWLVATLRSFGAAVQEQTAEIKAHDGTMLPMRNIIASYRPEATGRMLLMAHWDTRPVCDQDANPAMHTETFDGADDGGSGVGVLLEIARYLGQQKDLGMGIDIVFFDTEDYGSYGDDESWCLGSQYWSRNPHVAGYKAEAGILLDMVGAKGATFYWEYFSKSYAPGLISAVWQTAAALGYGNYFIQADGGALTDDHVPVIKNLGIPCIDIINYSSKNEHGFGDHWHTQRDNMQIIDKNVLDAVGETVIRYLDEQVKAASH
Experimental: Inhibitory constants were determined using concentrations of H-Gln-AMC varying from 1/4 KM to 2 KM and a final concentration of bacterial QC in a range between 25 nM and 50 nM. Progress curves were fitted to the general equation for competitive inhibition.

Clc1ccc(CNc2cnc3nc[nH]c3c2)cc1 [S-316, N-(4-chlorobenzyl)imidazo[4,5-b]pyridin-6-amine]
MIC ([1]; Fusobacterium nucleatum, ATCC25586, F. nucleatum ATCC 25586, 42 h): > 2000 µM | Growth attenuation ([1]; Gram-negative F. nucleatum, no QC-like enzyme): did not result in growth attenuation | MIC in words ([2]; T. forsythia): submillimolar | MIC ([2]; Tannerella forsythia, ATCC43037, T. forsythia ATCC 43037, 42 h): 500 µM (≈ 129 µg/mL) | MIC in words ([3]; P. intermedia): submillimolar | MIC ([3]; Prevotella intermedia, ATCC25611, P. intermedia ATCC 25611, 42 h): 125 µM (≈ 32.3 µg/mL) | Growth attenuation ([4]; Gram-positive S. gordonii, no QC-like enzyme): did not result in growth attenuation | MIC ([4]; Streptococcus gordonii, ATCC10558, S. gordonii ATCC 10558, 18 h): > 2000 µM | Ki [5]: 655 ± 27 nM | P. gingivalis growth inhibition, dependence on concentration [6]: dose-dependent; also recorded: concentration-dependent manner | P. gingivalis growth inhibition, dependence on concentration [7]: dose-dependent; also recorded: concentration-dependent manner | MIC in words ([8]; P. gingivalis clinical isolate): submillimolar | MIC ([8]; Porphyromonas gingivalis, P. gingivalis J374–1 clinical isolate, 42 h): 500 µM (≈ 129 µg/mL) | MIC in words ([9]; P. gingivalis laboratory strain): submillimolar | MIC ([9]; Porphyromonas gingivalis, ATCC33277, P. gingivalis ATCC 33277, 42 h): 500 µM (≈ 129 µg/mL) | MIC in words ([10]; P. gingivalis clinical isolate): submillimolar | MIC ([10]; Porphyromonas gingivalis, P. gingivalis M5-1-2 clinical isolate, 42 h): 250 µM (≈ 64.7 µg/mL) | Ki [11]: 53 ± 1.1 nM
